“And” between values parts separate entries of the source, which are not always exact repeats. Equal entries are not always repeated. Toxic doses and inconclusive results are not listed.
Test system: P388 leukemia ip, CD2F1 mice, survival T/C
Test: NCI In Vivo Anticancer Drug Screen. Data for tumor model P388 Leukemia (intraperitoneal) in CD2F1 (CDF1) mice
Conditions: endpoint: median survival time, higher = longer survival
Method in brief: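 Mice carrying the transplanted tumor received test compound or vehicle. Survival was recorded in each group, and the value is the treated-group measurement divided by that of the vehicle-treated control group.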

[1] = dose: 100.0 mg/kg/injection, schedule: Q04DX002 (ip), vehicle: saline
[2] = dose: 200.0 mg/kg/injection, schedule: Q04DX002 (ip), vehicle: saline
[3] = dose: 12.5 mg/kg/injection, schedule: Q01DX009 (ip), vehicle: Klucel (hydroxypropylcellulose) (HPC)
[4] = dose: 25.0 mg/kg/injection, schedule: Q01DX009 (ip), vehicle: Klucel (hydroxypropylcellulose) (HPC)
[5] = dose: 50.0 mg/kg/injection, schedule: Q01DX009 (ip), vehicle: Klucel (hydroxypropylcellulose) (HPC)
[6] = dose: 50.0 mg/kg/injection, schedule: Q01DX005 (ip), vehicle: saline
[7] = dose: 100.0 mg/kg/injection, schedule: Q01DX005 (ip), vehicle: saline
[8] = dose: 50.0 mg/kg/injection, schedule: Q01DX009 (ip), vehicle: saline
[9] = dose: 100.0 mg/kg/injection, schedule: Q01DX009 (ip), vehicle: Klucel (hydroxypropylcellulose) (HPC)
[10] = dose: 200.0 mg/kg/injection, schedule: Q01DX009 (ip), vehicle: Klucel (hydroxypropylcellulose) (HPC)
[11] = dose: 50.0 mg/kg/injection, schedule: Q01DX005 (ip), vehicle: Klucel (hydroxypropylcellulose) (HPC)
[12] = dose: 100.0 mg/kg/injection, schedule: Q01DX005 (ip), vehicle: Klucel (hydroxypropylcellulose) (HPC)
[13] = dose: 200.0 mg/kg/injection, schedule: Q01DX005 (ip), vehicle: Klucel (hydroxypropylcellulose) (HPC)
[14] = dose: 60.0 mg/kg/injection, schedule: Q01DX005 (ip), vehicle: Klucel (hydroxypropylcellulose) (HPC)
[15] = dose: 120.0 mg/kg/injection, schedule: Q01DX005 (ip), vehicle: Klucel (hydroxypropylcellulose) (HPC)
[16] = dose: 240.0 mg/kg/injection, schedule: Q01DX005 (ip), vehicle: Klucel (hydroxypropylcellulose) (HPC)
[17] = dose: 50.0 mg/kg/injection, schedule: Q01DX005 (ip), vehicle: saline with Tween-80
[18] = dose: 100.0 mg/kg/injection, schedule: Q01DX005 (ip), vehicle: saline with Tween-80
[19] = dose: 200.0 mg/kg/injection, schedule: Q01DX005 (ip), vehicle: saline with Tween-80
[20] = dose: 6.25 mg/kg/injection, schedule: Q01DX009 (ip), vehicle: Klucel (hydroxypropylcellulose) (HPC)

## NC1(C(=O)O)CCCc2ccc(N(CCCl)CCCl)cc21 (stereo not drawn)
dose: 5.0 mg/kg/injection, schedule: Q04DX003 (ip), vehicle: saline
  T/C: 165 % of control
dose: 6.25 mg/kg/injection, schedule: Q01DX009 (ip), vehicle: saline with Tween-80
  T/C: 218 % of control and 197 % of control and 201 % of control
dose: 10.0 mg/kg/injection, schedule: Q04DX003 (ip), vehicle: saline
  T/C: 180 % of control
dose: 12.5 mg/kg/injection, schedule: Q01DX009 (ip), vehicle: saline with Tween-80
  T/C: 272 % of control and 210 % of control and 215 % of control
dose: 12.5 mg/kg/injection, schedule: Q04DX003 (ip), vehicle: saline with Tween-80
  T/C: 222 % of control
dose: 25.0 mg/kg/injection, schedule: Q01DX009 (ip), vehicle: saline with Tween-80
  T/C: 90 % of control and 102 % of control and 121 % of control
dose: 25.0 mg/kg/injection, schedule: Q04DX003 (ip), vehicle: saline with Tween-80
  T/C: 272 % of control
dose: 313.0 micrograms/kg/injection, schedule: Q04DX003 (ip), vehicle: saline with Tween-80
  T/C: 100 % of control
dose: 625.0 micrograms/kg/injection, schedule: Q04DX003 (ip), vehicle: saline with Tween-80
  T/C: 109 % of control
dose: 1250.0 micrograms/kg/injection, schedule: Q04DX003 (ip), vehicle: saline with Tween-80
  T/C: 113 % of control

## COc1ccc(C(=O)CCS(=O)O)cc1
[1]
  T/C: 100 % of control
[2]
  T/C: 100 % of control
dose: 400.0 mg/kg/injection, schedule: Q04DX002 (ip), vehicle: saline
  T/C: 99 % of control

## S=C(Cl)N1CCN(C(=S)Cl)CC1
[3]
  T/C: 104 % of control
[4]
  T/C: 112 % of control
[5]
  T/C: 110 % of control and 93 % of control

## CCCCOC(=O)c1ccccc1OP(=O)(N(C)C)N(C)C
[6]
  T/C: 107 % of control
[7]
  T/C: 103 % of control

## Cc1cc(OC(=O)Nc2cc([N+](=O)[O-])ccc2C)c(Br)cc1Cl
dose: 12.5 mg/kg/injection, schedule: Q01DX009 (ip), vehicle: saline
  T/C: 98 % of control
dose: 25.0 mg/kg/injection, schedule: Q01DX009 (ip), vehicle: saline
  T/C: 93 % of control
dose: 50.0 mg/kg/injection, schedule: Q01DX009 (ip), vehicle: saline with Tween-80
  T/C: 117 % of control
[8]
  T/C: 100 % of control

## C=C(C1OC2OC(C)(C)OC2C1OC)P(=O)(OC(C)C)OC(C)C (stereo not drawn)
dose: 100.0 mg/kg/injection, schedule: Q04DX002 (ip), vehicle: saline with Tween-80
  T/C: 98 % of control
dose: 200.0 mg/kg/injection, schedule: Q04DX002 (ip), vehicle: saline with Tween-80
  T/C: 98 % of control

## Cc1ncc([N+](=O)[O-])n1Cc1nncs1
[5]
  T/C: 108 % of control
[9]
  T/C: 107 % of control
[10]
  T/C: 104 % of control

## CC(=O)SCC(C)C(=O)N1CCCC1C(=O)NC(Cc1ccccc1)C(=O)O (stereo not drawn)
[11]
  T/C: 110 % of control
[12]
  T/C: 98 % of control
[13]
  T/C: 104 % of control

## OC1c2ccccc2C(O)c2c1ccc1c2CN(Cc2ccccc2)CC1 (stereo not drawn)
[14]
  T/C: 89 % of control
[15]
  T/C: 92 % of control
[16]
  T/C: 92 % of control

## CN(C)CCOc1cccc2c1CCC2
dose: 60.0 mg/kg/injection, schedule: Q01DX005 (ip), vehicle: saline with Tween-80
  T/C: 107 % of control
dose: 120.0 mg/kg/injection, schedule: Q01DX005 (ip), vehicle: saline with Tween-80
  T/C: 87 % of control

## OC(ON=C1CCCCC1)c1ccc2c(c1)OCO2 (stereo not drawn)
[17]
  T/C: 96 % of control
[18]
  T/C: 103 % of control
[19]
  T/C: 107 % of control

## CN(C)CC/C=C1/c2ccccc2C=Nc2ccc(Cl)cc21
[20]
  T/C: 116 % of control
[3]
  T/C: 108 % of control
[4]
  T/C: 99 % of control

## Nc1ncc(C2CO2)c(-c2ccccc2)n1 (stereo not drawn)
[4]
  T/C: 94 % of control
[5]
  T/C: 103 % of control
[9]
  T/C: 108 % of control

## CC1C(O)C(O)CC2COCC21 (stereo not drawn)
dose: 37.5 mg/kg/injection, schedule: Q01DX001 (ip), vehicle: saline
  T/C: 100 % of control
dose: 75.0 mg/kg/injection, schedule: Q01DX001 (ip), vehicle: saline
  T/C: 100 % of control
dose: 150.0 mg/kg/injection, schedule: Q01DX001 (ip), vehicle: saline
  T/C: 104 % of control

## CN1Cc2c(c3c(n2C)CCCC3=O)C(O)C1 (stereo not drawn)
dose: 50.0 mg/kg/injection, schedule: Q04DX002 (ip), vehicle: saline
  T/C: 106 % of control
[1]
  T/C: 100 % of control
[2]
  T/C: 102 % of control

## O=C(O)c1ccc[c]([Sb]2(=[O])[O]C(CO)C(C(O)C(O)C(=O)O)[O]2)c1 (stereo not drawn)
[6]
  T/C: 100 % of control
[7]
  T/C: 100 % of control
dose: 200.0 mg/kg/injection, schedule: Q01DX005 (ip), vehicle: saline
  T/C: 104 % of control

## Cc1nc2c(cnn2C)c(=O)n1-c1cccc(Cl)c1
[11]
  T/C: 98 % of control
[12]
  T/C: 100 % of control
[13]
  T/C: 87 % of control

## CC(=NCCN=C(C)c1cc(C)ccc1O)c1cc(C)ccc1O
dose: 100.0 mg/kg/injection, schedule: Q04DX002 (ip), vehicle: Klucel (hydroxypropylcellulose) (HPC)
  T/C: 101 % of control
dose: 200.0 mg/kg/injection, schedule: Q04DX002 (ip), vehicle: Klucel (hydroxypropylcellulose) (HPC)
  T/C: 100 % of control
dose: 400.0 mg/kg/injection, schedule: Q04DX002 (ip), vehicle: Klucel (hydroxypropylcellulose) (HPC)
  T/C: 99 % of control

## O=[N+]([O-])c1ccc(Cl)nc1Sc1ncccn1
[20]
  T/C: 96 % of control
[3]
  T/C: 91 % of control
[4]
  T/C: 104 % of control
[9]
  T/C: 95 % of control

## CC(=O)Nc1c(I)c(C(=O)NC2C(O)OC(CO)C(O)C2O)c(I)c(N(C)C(C)=O)c1I (stereo not drawn)
dose: 60.0 mg/kg/injection, schedule: Q01DX005 (ip), vehicle: saline
  T/C: 100 % of control
dose: 120.0 mg/kg/injection, schedule: Q01DX005 (ip), vehicle: saline
  T/C: 100 % of control
dose: 240.0 mg/kg/injection, schedule: Q01DX005 (ip), vehicle: saline
  T/C: 107 % of control

## COC(=O)C1(C)CC2C(C)(CCC3(C)C4=CC=C5C(=CC(=O)C(O)=C5C)C4(C)CCC23C)CC1O (stereo not drawn)
dose: 6.25 mg/kg/injection, schedule: Q01DX001 (ip), vehicle: saline with Tween-80
  T/C: 100 % of control
dose: 12.5 mg/kg/injection, schedule: Q01DX001 (ip), vehicle: saline with Tween-80
  T/C: 99 % of control
dose: 25.0 mg/kg/injection, schedule: Q01DX001 (ip), vehicle: saline with Tween-80
  T/C: 99 % of control
dose: 100.0 mg/kg/injection, schedule: Q01DX001 (ip), vehicle: saline with Tween-80
  T/C: 100 % of control

## CCOC(=O)Cc1csc(=S)n1Cc1ccccc1
[17]
  T/C: 103 % of control
[18]
  T/C: 108 % of control
[19]
  T/C: 95 % of control

## CNC(=O)OCc1c(COC(=O)NC)c(-c2ccc(S(=O)(=O)c3ccccc3)cc2)n(C)c1C
dose: 12.5 mg/kg/injection, schedule: Q01DX009 (ip), vehicle: distilled water + Tween-80
  T/C: 154 % of control
dose: 40.0 mg/kg/injection, schedule: Q01DX009 (ip), vehicle: distilled water + Tween-80
  T/C: 153 % of control
dose: 50.0 mg/kg/injection, schedule: Q01DX009 (ip), vehicle: distilled water + Tween-80
  T/C: 100 % of control
dose: 80.0 mg/kg/injection, schedule: Q01DX009 (ip), vehicle: distilled water + Tween-80
  T/C: 153 % of control

## O=C(NC(COC1OC(CO)C(O)C(O)C1O)C(O)c1ccccc1)c1ccccc1 (stereo not drawn)
[5]
  T/C: 107 % of control
[8]
  T/C: 90 % of control
[9]
  T/C: 108 % of control
dose: 100.0 mg/kg/injection, schedule: Q01DX009 (ip), vehicle: saline
  T/C: 102 % of control
[10]
  T/C: 113 % of control
dose: 200.0 mg/kg/injection, schedule: Q01DX009 (ip), vehicle: saline
  T/C: 108 % of control

## COc1ccc(-n2cnc3c(cnn3C)c2=O)cc1
[14]
  T/C: 100 % of control
[15]
  T/C: 91 % of control

## COCN(C)N=Nc1ccc(C#N)cc1
[14]
  T/C: 100 % of control
[15]
  T/C: 117 % of control
[16]
  T/C: 117 % of control
